# Laboratory results: ChEMBL document CHEMBL4804286, “3-amino-4-(4-(4 (dimethylcarbamoyl) phenyl)-1,4-diazepan-1-yl) thieno [2,3-b] pyridine-2-carboxamide for use in cancer therapy and formulations comprising the same” (2020)
# “And” between values parts separate entries of the source, which are not always exact repeats. Equal values may be shown once.
# Legend:
# [1] = tested on: Tyrosine-protein kinase ABL1 (Homo sapiens), P00519 [F317I]; experiment: Inhibition of non-phosphorylated human ABL1 F317I mutant assessed as percent of control at 2000 nM by KINOMEscan assay relative to control; design: scale not given: the % may be the effect or the level left
# [2] = target: Activin receptor type-2B (Homo sapiens) (UniProt Q13705); experiment: Inhibition of human ACVR2B assessed as percent of control at 2000 nM by KINOMEscan assay relative to control; design: scale not given: the % may be the effect or the level left
# [3] = target: Ankyrin repeat and protein kinase domain-containing protein 1 (Homo sapiens) (UniProt Q8NFD2); experiment: Inhibition of human ANKK1 assessed as percent of control at 2000 nM by KINOMEscan assay relative to control; design: scale not given: the % may be the effect or the level left
# [4] = target: Tyrosine-protein kinase BTK (Homo sapiens) (UniProt Q06187); experiment: Inhibition of human BTK assessed as percent of control at 2000 nM by KINOMEscan assay relative to control; design: scale not given: the % may be the effect or the level left
# [5] = target: Calcium/calmodulin-dependent protein kinase kinase 1 (Homo sapiens) (UniProt Q8N5S9); experiment: Inhibition of human CAMKK1 assessed as percent of control at 2000 nM by KINOMEscan assay relative to control; design: scale not given: the % may be the effect or the level left
# [6] = target: Cyclin-dependent kinase 2 (Homo sapiens) (UniProt P24941); experiment: Inhibition of human CDK2 assessed as percent of control at 2000 nM by KINOMEscan assay relative to control; design: scale not given: the % may be the effect or the level left
# [7] = target: Serine/threonine-protein kinase 17B (Homo sapiens) (UniProt O94768); experiment: Inhibition of human DRAK2 assessed as percent of control at 2000 nM by KINOMEscan assay relative to control; design: scale not given: the % may be the effect or the level left
# [8] = target: Rhodopsin kinase GRK1 (Homo sapiens) (UniProt Q15835); experiment: Inhibition of human GRK1 assessed as percent of control at 2000 nM by KINOMEscan assay relative to control; design: scale not given: the % may be the effect or the level left
# [9] = target: Inhibitor of nuclear factor kappa-B kinase subunit epsilon (Homo sapiens) (UniProt Q14164); experiment: Inhibition of human IKK-epsilon assessed as percent of control at 2000 nM by KINOMEscan assay relative to control; design: scale not given: the % may be the effect or the level left
# [10] = target: Tyrosine-protein kinase JAK1 (Homo sapiens) (UniProt P23458); experiment: Inhibition of human JAK1 JH2 pseudokinase domain assessed as percent of control at 2000 nM by KINOMEscan assay relative to control; design: scale not given: the % may be the effect or the level left
# [11] = tested on: Mast/stem cell growth factor receptor Kit (Homo sapiens), P10721 [V559D]; experiment: Inhibition of human KIT V559D mutant assessed as percent of control at 2000 nM by KINOMEscan assay relative to control; design: scale not given: the % may be the effect or the level left
# [12] = target: Serine/threonine-protein kinase MARK2 (Homo sapiens) (UniProt Q7KZI7); experiment: Inhibition of human MARK2 assessed as percent of control at 2000 nM by KINOMEscan assay relative to control; design: scale not given: the % may be the effect or the level left
# [13] = target: Dual specificity mitogen-activated protein kinase kinase 6 (Homo sapiens) (UniProt P52564); experiment: Inhibition of human MEK6 assessed as percent of control at 2000 nM by KINOMEscan assay relative to control; design: scale not given: the % may be the effect or the level left
# [14] = target: Maternal embryonic leucine zipper kinase (Homo sapiens) (UniProt Q14680); experiment: Inhibition of human MELK assessed as percent of control at 2000 nM by KINOMEscan assay relative to control; design: scale not given: the % may be the effect or the level left
# [15] = target: Muscle, skeletal receptor tyrosine-protein kinase (Homo sapiens) (UniProt O15146); experiment: Inhibition of human MUSK assessed as percent of control at 2000 nM by KINOMEscan assay relative to control; design: scale not given: the % may be the effect or the level left
# [16] = target: Serine/threonine-protein kinase Nek1 (Homo sapiens) (UniProt Q96PY6); experiment: Inhibition of human NEK1 assessed as percent of control at 2000 nM by KINOMEscan assay relative to control; design: scale not given: the % may be the effect or the level left
# [17] = tested on: Phosphatidylinositol 4,5-bisphosphate 3-kinase catalytic subunit alpha isoform (Homo sapiens), P42336 [H1047Y]; experiment: Inhibition of human PIK3CA H1047Y mutant assessed as percent of control at 2000 nM by KINOMEscan assay relative to control; design: scale not given: the % may be the effect or the level left
# [18] = target: Phosphatidylinositol 4-kinase beta (Homo sapiens) (UniProt Q9UBF8); experiment: Inhibition of human PIK4CB assessed as percent of control at 2000 nM by KINOMEscan assay relative to control; design: scale not given: the % may be the effect or the level left
# [19] = target: Serine/threonine-protein kinase PLK1 (Homo sapiens) (UniProt P53350); experiment: Inhibition of human PLK1 assessed as percent of control at 2000 nM by KINOMEscan assay relative to control; design: scale not given: the % may be the effect or the level left
# [20] = target: Serine/threonine-protein kinase PLK4 (Homo sapiens) (UniProt O00444); experiment: Inhibition of human PLK4 assessed as percent of control at 2000 nM by KINOMEscan assay relative to control; design: scale not given: the % may be the effect or the level left
# [21] = target: Serine/threonine-protein kinase D3 (Homo sapiens) (UniProt O94806); experiment: Inhibition of human PRKD3 assessed as percent of control at 2000 nM by KINOMEscan assay relative to control; design: scale not given: the % may be the effect or the level left
# [22] = target: cGMP-dependent protein kinase 2 (Homo sapiens) (UniProt Q13237); experiment: Inhibition of human PRKG2 assessed as percent of control at 2000 nM by KINOMEscan assay relative to control; design: scale not given: the % may be the effect or the level left
# [23] = target: Serine/threonine-protein kinase RIO3 (Homo sapiens) (UniProt O14730); experiment: Inhibition of human RIOK3 assessed as percent of control at 2000 nM by KINOMEscan assay relative to control; design: scale not given: the % may be the effect or the level left
# [24] = target: Ribosomal protein S6 kinase alpha-2 (Homo sapiens) (UniProt Q15349); experiment: Inhibition of human N-terminal RSK3 kinase domain 1 assessed as percent of control at 2000 nM by KINOMEscan assay relative to control; design: scale not given: the % may be the effect or the level left
# [25] = target: NUAK family SNF1-like kinase 2 (Homo sapiens) (UniProt Q9H093); experiment: Inhibition of human SNARK assessed as percent of control at 2000 nM by KINOMEscan assay relative to control; design: scale not given: the % may be the effect or the level left
# [26] = target: Serine/threonine-protein kinase 33 (Homo sapiens) (UniProt Q9BYT3); experiment: Inhibition of human STK33 assessed as percent of control at 2000 nM by KINOMEscan assay relative to control; design: scale not given: the % may be the effect or the level left
# [27] = target: TRAF2 and NCK-interacting protein kinase (Homo sapiens) (UniProt Q9UKE5); experiment: Inhibition of human TNIK assessed as percent of control at 2000 nM by KINOMEscan assay relative to control; design: scale not given: the % may be the effect or the level left
# [28] = target: Serine/threonine-protein kinase WNK2 (Homo sapiens) (UniProt Q9Y3S1); experiment: Inhibition of human WNK2 assessed as percent of control at 2000 nM by KINOMEscan assay relative to control; design: scale not given: the % may be the effect or the level left
# [29] = target: Casein kinase I isoform alpha (Homo sapiens) (UniProt P48729); conditions: INHIBITOR, dose 2000.0 nM
# Description: Inhibition of human CSNK1A1 at 2000 nM by KINOMEscan assay
# [30] = target: Casein kinase I isoform epsilon (Homo sapiens) (UniProt P49674); conditions: INHIBITOR, dose 2000.0 nM
# Description: Inhibition of human CSNK1E at 2000 nM by KINOMEscan assay
# [31] = target: Glycogen synthase kinase-3 alpha (Homo sapiens) (UniProt P49840); conditions: INHIBITOR, dose 2000.0 nM
# Description: Inhibition of human GSK3A at 2000 nM by KINOMEscan assay
# Sequence of Serine/threonine-protein kinase RIO3 (Homo sapiens) (O14730 whole entry, the tested form may be a part): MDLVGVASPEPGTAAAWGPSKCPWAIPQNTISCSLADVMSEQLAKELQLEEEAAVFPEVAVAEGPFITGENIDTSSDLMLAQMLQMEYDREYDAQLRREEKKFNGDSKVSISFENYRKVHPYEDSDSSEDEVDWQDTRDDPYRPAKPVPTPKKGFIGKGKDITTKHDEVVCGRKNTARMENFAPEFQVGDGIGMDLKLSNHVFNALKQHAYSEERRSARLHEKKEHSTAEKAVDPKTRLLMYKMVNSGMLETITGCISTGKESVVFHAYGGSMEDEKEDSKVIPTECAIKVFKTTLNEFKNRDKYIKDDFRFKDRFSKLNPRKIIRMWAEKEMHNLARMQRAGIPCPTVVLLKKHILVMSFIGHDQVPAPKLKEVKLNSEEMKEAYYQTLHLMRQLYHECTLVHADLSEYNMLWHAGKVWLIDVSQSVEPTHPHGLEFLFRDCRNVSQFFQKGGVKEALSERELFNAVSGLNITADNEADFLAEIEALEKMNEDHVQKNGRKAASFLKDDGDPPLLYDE
# Sequence of Serine/threonine-protein kinase 33 (Homo sapiens) (Q9BYT3 whole entry, looked up): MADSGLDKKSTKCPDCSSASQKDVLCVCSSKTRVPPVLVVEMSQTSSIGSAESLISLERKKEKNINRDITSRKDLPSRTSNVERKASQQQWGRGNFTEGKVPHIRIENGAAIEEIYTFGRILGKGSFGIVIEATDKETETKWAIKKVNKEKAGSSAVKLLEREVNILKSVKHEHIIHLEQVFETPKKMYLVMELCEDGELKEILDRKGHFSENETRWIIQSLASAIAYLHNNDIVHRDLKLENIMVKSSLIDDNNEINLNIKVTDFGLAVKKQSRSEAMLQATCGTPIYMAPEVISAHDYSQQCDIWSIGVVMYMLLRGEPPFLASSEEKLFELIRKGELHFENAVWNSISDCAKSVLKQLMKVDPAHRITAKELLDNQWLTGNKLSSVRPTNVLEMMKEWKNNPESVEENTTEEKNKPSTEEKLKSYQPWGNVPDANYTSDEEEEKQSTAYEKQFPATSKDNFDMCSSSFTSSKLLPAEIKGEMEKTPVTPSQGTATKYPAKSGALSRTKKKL
# Sequence of Serine/threonine-protein kinase D3 (Homo sapiens) (O94806 whole entry): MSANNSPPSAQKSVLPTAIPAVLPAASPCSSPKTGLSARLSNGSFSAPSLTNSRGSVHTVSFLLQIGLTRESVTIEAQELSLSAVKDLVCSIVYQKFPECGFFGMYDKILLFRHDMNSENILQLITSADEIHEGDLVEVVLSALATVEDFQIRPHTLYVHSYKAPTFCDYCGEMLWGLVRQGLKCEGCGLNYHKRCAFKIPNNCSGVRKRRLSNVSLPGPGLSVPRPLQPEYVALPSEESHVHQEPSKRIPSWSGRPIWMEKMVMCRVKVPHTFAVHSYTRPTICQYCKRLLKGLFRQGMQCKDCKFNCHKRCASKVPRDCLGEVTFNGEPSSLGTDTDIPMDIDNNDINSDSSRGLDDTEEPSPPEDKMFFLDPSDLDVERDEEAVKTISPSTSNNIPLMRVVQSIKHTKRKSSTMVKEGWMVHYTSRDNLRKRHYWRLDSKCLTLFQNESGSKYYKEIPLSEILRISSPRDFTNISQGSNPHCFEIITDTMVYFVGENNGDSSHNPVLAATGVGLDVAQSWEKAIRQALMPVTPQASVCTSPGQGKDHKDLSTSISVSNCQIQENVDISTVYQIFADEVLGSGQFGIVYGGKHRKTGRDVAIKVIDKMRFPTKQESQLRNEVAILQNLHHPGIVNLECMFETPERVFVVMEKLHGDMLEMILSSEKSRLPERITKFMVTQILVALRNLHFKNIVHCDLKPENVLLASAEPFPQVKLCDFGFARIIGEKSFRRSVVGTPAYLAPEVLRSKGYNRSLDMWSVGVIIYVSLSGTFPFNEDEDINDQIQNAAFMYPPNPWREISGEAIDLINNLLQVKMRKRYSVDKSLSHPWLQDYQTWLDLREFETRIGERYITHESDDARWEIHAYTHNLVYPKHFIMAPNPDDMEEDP
# Sequence of cGMP-dependent protein kinase 2 (Homo sapiens) (Q13237 whole entry): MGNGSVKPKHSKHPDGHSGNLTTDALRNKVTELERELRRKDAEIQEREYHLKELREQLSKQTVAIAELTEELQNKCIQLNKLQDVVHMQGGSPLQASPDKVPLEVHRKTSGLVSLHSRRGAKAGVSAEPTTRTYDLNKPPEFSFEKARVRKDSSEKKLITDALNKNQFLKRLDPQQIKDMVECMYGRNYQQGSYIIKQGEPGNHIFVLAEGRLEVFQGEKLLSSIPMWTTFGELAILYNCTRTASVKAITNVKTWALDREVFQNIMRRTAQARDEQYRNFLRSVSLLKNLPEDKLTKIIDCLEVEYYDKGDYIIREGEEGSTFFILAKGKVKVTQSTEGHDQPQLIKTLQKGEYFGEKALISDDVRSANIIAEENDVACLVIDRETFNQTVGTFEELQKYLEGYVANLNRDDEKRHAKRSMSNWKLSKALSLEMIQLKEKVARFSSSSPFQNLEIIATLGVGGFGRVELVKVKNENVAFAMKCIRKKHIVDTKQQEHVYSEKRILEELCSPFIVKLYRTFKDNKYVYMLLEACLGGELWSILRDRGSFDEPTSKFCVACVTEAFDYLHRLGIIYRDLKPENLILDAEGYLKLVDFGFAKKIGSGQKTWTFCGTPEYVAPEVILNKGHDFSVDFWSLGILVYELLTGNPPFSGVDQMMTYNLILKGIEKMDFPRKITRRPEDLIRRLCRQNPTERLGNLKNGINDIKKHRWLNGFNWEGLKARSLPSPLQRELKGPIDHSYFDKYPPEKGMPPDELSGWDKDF
# Sequence of Serine/threonine-protein kinase PLK4 (Homo sapiens) (O00444 whole entry): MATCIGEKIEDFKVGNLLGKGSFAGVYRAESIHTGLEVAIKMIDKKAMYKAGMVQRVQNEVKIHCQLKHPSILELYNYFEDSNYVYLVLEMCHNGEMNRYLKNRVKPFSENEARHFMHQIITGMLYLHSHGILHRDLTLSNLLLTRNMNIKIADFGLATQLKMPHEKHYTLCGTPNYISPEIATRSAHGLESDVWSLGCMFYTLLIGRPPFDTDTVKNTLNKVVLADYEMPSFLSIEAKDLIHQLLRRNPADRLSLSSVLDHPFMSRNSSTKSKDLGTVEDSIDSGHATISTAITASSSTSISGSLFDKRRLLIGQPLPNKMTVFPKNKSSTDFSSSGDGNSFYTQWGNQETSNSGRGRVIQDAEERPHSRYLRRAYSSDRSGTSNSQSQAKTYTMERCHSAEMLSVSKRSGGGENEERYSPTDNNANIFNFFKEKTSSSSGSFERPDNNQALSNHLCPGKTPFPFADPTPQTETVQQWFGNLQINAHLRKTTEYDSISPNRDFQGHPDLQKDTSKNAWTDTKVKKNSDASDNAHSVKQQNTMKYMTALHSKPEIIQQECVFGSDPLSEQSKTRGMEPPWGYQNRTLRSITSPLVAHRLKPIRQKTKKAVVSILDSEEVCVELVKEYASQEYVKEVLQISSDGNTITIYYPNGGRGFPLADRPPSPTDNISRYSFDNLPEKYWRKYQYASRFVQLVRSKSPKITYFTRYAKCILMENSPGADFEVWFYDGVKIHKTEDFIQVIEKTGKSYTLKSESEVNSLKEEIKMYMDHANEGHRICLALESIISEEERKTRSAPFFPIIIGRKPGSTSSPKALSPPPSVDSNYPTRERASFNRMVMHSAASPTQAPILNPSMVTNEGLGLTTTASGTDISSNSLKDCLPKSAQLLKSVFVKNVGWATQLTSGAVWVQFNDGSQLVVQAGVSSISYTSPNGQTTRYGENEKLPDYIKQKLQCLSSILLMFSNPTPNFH
# Sequence of Ribosomal protein S6 kinase alpha-2 (Homo sapiens) (Q15349 whole entry, the tested form may be a part): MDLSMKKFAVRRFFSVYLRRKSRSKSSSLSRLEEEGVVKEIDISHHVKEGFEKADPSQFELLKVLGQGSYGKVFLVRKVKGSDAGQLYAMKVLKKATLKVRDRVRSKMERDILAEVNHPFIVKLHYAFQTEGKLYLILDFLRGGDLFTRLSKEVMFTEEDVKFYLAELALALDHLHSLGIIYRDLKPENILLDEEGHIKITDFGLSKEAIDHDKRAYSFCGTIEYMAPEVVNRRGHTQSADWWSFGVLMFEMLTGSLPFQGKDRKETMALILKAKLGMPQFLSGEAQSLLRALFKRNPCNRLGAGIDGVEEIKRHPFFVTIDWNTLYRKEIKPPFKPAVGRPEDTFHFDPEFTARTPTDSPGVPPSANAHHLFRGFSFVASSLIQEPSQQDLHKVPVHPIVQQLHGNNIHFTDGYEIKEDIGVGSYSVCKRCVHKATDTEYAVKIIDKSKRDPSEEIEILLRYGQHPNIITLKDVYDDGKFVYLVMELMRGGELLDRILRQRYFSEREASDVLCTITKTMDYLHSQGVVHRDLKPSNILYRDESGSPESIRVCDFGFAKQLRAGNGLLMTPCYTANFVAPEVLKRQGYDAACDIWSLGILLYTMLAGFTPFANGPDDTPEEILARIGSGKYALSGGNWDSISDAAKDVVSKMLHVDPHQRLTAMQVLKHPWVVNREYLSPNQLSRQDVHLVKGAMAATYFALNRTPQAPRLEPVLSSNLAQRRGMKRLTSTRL
# Sequence of Serine/threonine-protein kinase PLK1 (Homo sapiens) (P53350 whole entry): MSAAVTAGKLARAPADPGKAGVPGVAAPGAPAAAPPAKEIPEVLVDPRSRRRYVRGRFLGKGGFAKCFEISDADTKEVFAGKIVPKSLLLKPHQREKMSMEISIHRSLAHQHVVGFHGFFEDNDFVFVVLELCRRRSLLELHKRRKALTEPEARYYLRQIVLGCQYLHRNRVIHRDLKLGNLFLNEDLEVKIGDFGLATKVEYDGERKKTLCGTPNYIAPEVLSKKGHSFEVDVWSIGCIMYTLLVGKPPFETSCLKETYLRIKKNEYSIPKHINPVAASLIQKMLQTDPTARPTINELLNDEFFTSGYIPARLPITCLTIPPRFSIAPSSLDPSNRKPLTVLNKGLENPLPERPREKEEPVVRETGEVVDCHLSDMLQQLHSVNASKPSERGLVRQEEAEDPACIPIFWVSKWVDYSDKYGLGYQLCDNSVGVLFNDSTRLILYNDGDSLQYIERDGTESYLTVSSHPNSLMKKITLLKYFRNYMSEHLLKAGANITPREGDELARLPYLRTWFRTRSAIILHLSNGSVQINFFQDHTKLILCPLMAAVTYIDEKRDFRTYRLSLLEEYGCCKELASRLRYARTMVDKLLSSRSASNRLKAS
smiles,measurement,setting,value
CN(C)C(=O)c1ccc(N2CCCN(c3ccnc4sc(C(N)=O)c(N)c34)CC2)cc1,Activity,[1],100% and 93%
same,Activity,[2],100% and 86%
same,Activity,[3],100% and 91%
same,Activity,[4],81% and 77%
same,Activity,[5],96% and 100%
same,Activity,[6],100% and 99%
same,Activity,[7],100% and 87%
same,Activity,[8],98% and 81%
same,Activity,[9],100%
same,Activity,[10],89%
same,Activity,[11],98% and 91%
same,Activity,[12],100% and 96%
same,Activity,[13],100% and 96%
same,Activity,[14],75% and 84%
same,Activity,[15],94% and 82%
same,Activity,[16],80% and 96%
same,Activity,[17],79% and 100%
same,Activity,[18],65%
same,Activity,[18]; INHIBITOR,33%
same,Activity,[19],95% and 89%
same,Activity,[20],95% and 92%
same,Activity,[21],94% and 100%
same,Activity,[22],98% and 90%
same,Activity,[23],100% and 95%
same,Activity,[24],99% and 77%
same,Activity,[25],100% and 78%
same,Activity,[26],100%
same,Activity,[27],100% and 91%
same,Activity,[28],96% and 94%
same,inhibition,[29],> 65%
same,inhibition,[30],> 65%
same,inhibition,[31],> 65%
